Laboratory results from the NIST ThermoML archive (doi:10.1021/je9005689).
Numbers after ± are expanded uncertainties.

Tests used:
[1] = Crystal; DTA
[2] = Molar enthalpy of transition or fusion; conditions: Crystal; DSC

Normal melting temperature [1]: 69.00 ± 0.5 °C | Molar enthalpy of transition or fusion [2]: 4.22 ± 0.1 kcal/mol
Structure (SMILES): COc1cnc(Cl)nc1Cl [2,4-dichloro-5-methoxypyrimidine]
